Data on 17 compounds can be found in ChEMBL document CHEMBL1149237, “Design and synthesis of benzofused heterocyclic RXR modulators” (Bioorg Med Chem Lett, 2004).

A word on the EC50: it is the concentration that produces a half-maximal response. High values mean weaker potency, low ones greater potency. Usually Ki stands for the dissociation constant of the complex between target and ligand, obtained from inhibition or displacement.

Assay [1] concerns the target T1, Retinoic acid receptor RXR-alpha (Homo sapiens, UniProt P19793).
T1 sequence (P19793 whole entry): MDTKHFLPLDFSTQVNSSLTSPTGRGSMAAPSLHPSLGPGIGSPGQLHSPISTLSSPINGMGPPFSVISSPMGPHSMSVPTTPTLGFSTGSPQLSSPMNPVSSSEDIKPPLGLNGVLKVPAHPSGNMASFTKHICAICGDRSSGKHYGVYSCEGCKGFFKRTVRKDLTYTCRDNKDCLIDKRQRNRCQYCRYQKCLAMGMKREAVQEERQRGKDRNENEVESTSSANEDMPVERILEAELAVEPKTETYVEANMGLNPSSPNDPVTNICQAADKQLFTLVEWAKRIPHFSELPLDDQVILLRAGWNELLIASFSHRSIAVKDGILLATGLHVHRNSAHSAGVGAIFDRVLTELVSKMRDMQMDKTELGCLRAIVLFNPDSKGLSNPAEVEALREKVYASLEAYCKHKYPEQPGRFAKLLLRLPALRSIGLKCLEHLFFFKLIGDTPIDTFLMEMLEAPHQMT
Briefly: Effective concentration for antagonistic activity against RXR-alpha expressed in CV-1 cells. The class given is functional, cell-based, Cercopithecidae.

In assay [2] the test system is Cercopithecidae. Briefly: RAR agonist synergy calculated using 3 nM of TTNPB. In kind it is functional.
The target of assay [3] is T2, Retinoic acid receptor RXR-alpha (Homo sapiens) (UniProt P19793).
T2 sequence (whole entry): T1 sequence (P19793 whole entry)
Briefly: Agonistic efficacy in CV-1 cells (LGD1069 was used as reference). Conditions: Cercopithecidae. The class given is functional, cell-based.

For assay [4], the target named is T3, Peroxisome proliferator-activated receptor gamma (Homo sapiens) (UniProt P37231).
T3 sequence (whole entry): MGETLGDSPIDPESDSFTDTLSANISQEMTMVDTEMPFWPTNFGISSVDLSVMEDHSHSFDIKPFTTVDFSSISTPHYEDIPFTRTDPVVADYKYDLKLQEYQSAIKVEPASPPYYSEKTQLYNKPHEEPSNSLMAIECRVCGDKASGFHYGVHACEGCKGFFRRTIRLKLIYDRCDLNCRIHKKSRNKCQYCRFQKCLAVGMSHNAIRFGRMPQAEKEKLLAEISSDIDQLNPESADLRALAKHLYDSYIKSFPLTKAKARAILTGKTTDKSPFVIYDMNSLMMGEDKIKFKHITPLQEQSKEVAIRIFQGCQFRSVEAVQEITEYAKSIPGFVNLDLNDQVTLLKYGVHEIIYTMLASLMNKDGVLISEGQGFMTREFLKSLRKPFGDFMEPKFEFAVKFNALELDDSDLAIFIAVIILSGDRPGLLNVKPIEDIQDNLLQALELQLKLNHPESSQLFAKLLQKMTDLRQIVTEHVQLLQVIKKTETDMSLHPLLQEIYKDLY
Briefly: Ratio between effective concentrations (Agonist) in PPAR gamma. Conditions: Cercopithecidae. The class given is functional.

Assay [5] has as its target T2, Retinoic acid receptor RXR-alpha (Homo sapiens). Briefly: Antagonistic efficacy in CV-1 cells (LGD1069 was used as reference). The class given is functional, cell-based. Conditions: Cercopithecidae.
Assay [6] concerns the target T1, Retinoic acid receptor RXR-alpha. Briefly: Ability to displace [3H]9-cis-RA from Retinoid X receptor alpha in CV-1 cells. In kind it is cell-based, Cercopithecidae.
The target of assay [7] is T4, Retinoic acid receptor gamma (Homo sapiens, UniProt P13631).
T4 sequence (P13631 whole entry): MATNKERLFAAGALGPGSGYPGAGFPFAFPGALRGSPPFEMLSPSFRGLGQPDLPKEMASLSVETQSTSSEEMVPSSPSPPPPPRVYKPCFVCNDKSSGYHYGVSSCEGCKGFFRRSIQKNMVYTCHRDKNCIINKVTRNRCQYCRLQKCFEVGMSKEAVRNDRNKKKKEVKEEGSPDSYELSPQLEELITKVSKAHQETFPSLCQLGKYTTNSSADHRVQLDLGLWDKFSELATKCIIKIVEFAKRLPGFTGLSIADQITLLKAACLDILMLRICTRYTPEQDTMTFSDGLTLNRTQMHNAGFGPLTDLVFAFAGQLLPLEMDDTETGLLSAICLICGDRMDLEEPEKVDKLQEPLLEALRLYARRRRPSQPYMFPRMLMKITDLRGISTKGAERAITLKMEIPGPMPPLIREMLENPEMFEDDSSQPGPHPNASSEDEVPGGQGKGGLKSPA
Briefly: Ability to displace [3H]ATRA from Retinoic acid receptor gamma in CV-1 cells. The class given is cell-based, Cercopithecidae.

The target in assay [8] is T3, Peroxisome proliferator-activated receptor gamma (Homo sapiens). In words: Ratio between agonistic efficacy in PPAR gamma. The class given is functional. Conditions: Cercopithecidae.
The target in assay [9] is T1, Retinoic acid receptor RXR-alpha. Briefly: Effective concentration required for agonistic activity in CV-1 cells expressing RXR-alpha. The class given is functional, cell-based, Cercopithecidae.

Molecules are shown by their SMILES.

In [1], `C/C(=C\C(=O)O)c1ccc2scc(-c3cc(C(C)C)cc(C(C)C)c3OCCCF)c2c1` displayed an EC50 of 4150 nM. The Synergy in assay [2] is 1.5. Moreover, the Efficacy in [3] came to 1.78%; in assay [5], 48%. Moreover, the Ratio worked out at 1480 in assay [4] and 123 in [8]. The results for the Ki in assay [6] and in assay [7] were 395 nM and greater than 10000 nM, respectively.
As to `C/C(=C\C(=O)O)c1ccc2scc(-c3cc(C(C)C)cc(C(C)C)c3O)c2c1`, the Synergy in [2] was 3.5. Moreover, the Efficacy in [3] turned out to be 37.4%; in assay [5], 0%. For the same compound, the Ratio in assay [4] worked out at 384; in assay [8] it was 112. Further, the inhibition constant (Ki) in assay [6] is 131 nM; in assay [7], greater than 10000 nM. The compound also registered an EC50 in [9] of 1440 nM.
Turning to `CCCCOc1c(-c2cccc3[nH]c(/C(C)=C/C(=O)O)cc23)cc(C(C)C)cc1C(C)C`, the half-maximal effective concentration (EC50) in assay [1] stood at 3980 nM. Further, in assay [2], the Synergy is 1.1. In addition, the Efficacy in [3] came out at 0.51%; in assay [5] it was 64%. Besides, the figures for the Ratio in assay [4] and in assay [8] were 893 and 24.9, respectively.
Take `COc1c(-c2csc3ccc(/C(C)=C/C(=O)O)cc23)cc(C(C)C)cc1C(C)C`: the Synergy in [2] is 2.7. The Efficacy in assay [3] amounted to 65.4%; in [5], 0%. The Ratio in assay [4] came out at 224; in assay [8] it was 114. Also, the results for the inhibitory constant (Ki) in [6] and in [7] were 29.6 nM and greater than 10000 nM, respectively. For the same compound, in assay [9], the EC50 turned out to be 914 nM.
In [1], `CCCCOc1c(-c2c[nH]c3ccc(/C(C)=C/C(=O)O)cc23)cc(C(C)C)cc1C(C)C` displayed an EC50 of 21.1 nM. Besides, the Synergy in assay [2] was 1.3. Besides, the Efficacy in assay [3] stood at 1.7%; in [5], 87%. Besides, the Ratio in assay [4] stood at 15; in [8] it was 256. For the same compound, the values for the Ki in assay [6] and in assay [7] were 7.4 nM and greater than 10000 nM, respectively.
On to `CCOc1c(-c2noc3ccc(/C(C)=C/C(=O)O)cc23)cc(C(C)C)cc1C(C)C`, for which the Synergy in [2] was 1.7. The Efficacy was 36% in [3] and 24% in [5]. In addition, the Ratio worked out at 306 in assay [4] and 65 in assay [8]. In addition, the inhibition constant (Ki) in assay [6] is 648 nM; in [7], greater than 10000 nM. The midpoint of the response in assay [9], the EC50, lay at 1020 nM.
`CCOc1c(-c2cnc3ccc(/C(C)=C/C(=O)O)cn23)cc(C(C)C)cc1C(C)C`: in [2], the Synergy was 1.5. The Efficacy came to 7.93% in [3] and 9% in assay [5]. Also, the Ratio came out at 425 in [4] and 81.8 in assay [8]. The figures for the Ki in assay [6] and in assay [7] were 2080 nM and greater than 10000 nM, respectively.
For the compound `C/C(=C\C(=O)O)c1ccc2[nH]cc(-c3cc(C(C)(C)C)cc(C(C)(C)C)c3OCC(F)F)c2c1`, the concentration giving a half-maximal response (EC50) in [1] amounted to 66.3 nM; in assay [9], 65 nM. Besides, in assay [2], the Synergy was 3. Further, the Efficacy in assay [3] was found to be 15%; in assay [5], 41%. The Ratio in [4] came to 21.9; in assay [8], 233. The inhibition constant Ki in assay [6] is 1.6 nM; in assay [7], greater than 10000 nM.
Turning to `CCCCOc1c(\C(C)=C/C=C/C(C)=C/C(=O)O)cc(C(C)C)cc1C(C)C`, in [1], the EC50 turned out to be 4 nM. In addition, in assay [2], the Synergy is 1. The Efficacy amounted to 2% in assay [3] and 91% in assay [5]. For the same compound, the Ratio in assay [4] was found to be 1890; in assay [8], 12. Moreover, the inhibition constant (Ki) in [7] was greater than 10000 nM.
As to `C/C(=C/C=C/C(C)=C/C(=O)O)c1cc(C(C)(C)C)cc(C(C)(C)C)c1OCCCF`, the response in assay [1] was half-maximal at 6.4 nM (EC50). In addition, in assay [2], the Synergy is 1.4. In addition, the Efficacy in assay [3] was 4%; in assay [5], 84%. For the same compound, the Ratio in assay [4] came to 3.1; in assay [8], 60. In addition, the results for the inhibitory constant (Ki) in assay [6] and in [7] were 2.7 nM and greater than 10000 nM, respectively.
In the case of `CCOc1c(\C(C)=C/C=C/C(C)=C/C(=O)O)cc(C(C)C)cc1C(C)C`, in assay [2], the Synergy was 5. In addition, the Efficacy in assay [3] is 58%; in [5], 7%. For the same compound, the values for the Ratio in assay [4] and in [8] were 8 and 38, respectively. Besides, the Ki in assay [7] was greater than 10000 nM.
Regarding `CCCCOc1c(-c2c[nH]c3ccc(/C(C)=C/C(=O)O)cc23)cc(C(C)(C)C)cc1C(C)(C)C`, the EC50 in assay [1] is 26.4 nM. For the same compound, in [2], the Synergy is 2.3. The Efficacy in [3] amounted to 1%; in [5], 93%. The Ratio was 8.9 in assay [4] and 105 in assay [8]. In addition, the inhibitory constant (Ki) in assay [6] is 3.2 nM; in [7], greater than 10000 nM.
Compound `CCCCOc1c(-c2cn(C)c3ccc(/C(C)=C/C(=O)O)cc23)cc(C(C)C)cc1C(C)C` displayed an EC50 in [1] of 1530 nM. The Synergy in [2] was 2.5. For the same compound, the Efficacy is 2.52% in [3] and 86% in [5]. For the same compound, the Ratio in assay [4] turned out to be 612; in assay [8], 49. For the same compound, the inhibitory constant (Ki) is 740 nM in [6] and greater than 10000 nM in assay [7].
Consider `CCCOc1c(-c2c[nH]c3ccc(/C(C)=C/C(=O)O)cc23)cc(C(C)(C)C)cc1C(C)(C)C`, for which it took 30.1 nM to reach a half-maximal effect in assay [1] (EC50). In addition, the Synergy in [2] was 3.4. The Efficacy in assay [3] stood at 7%; in [5], 81%. The Ratio in assay [4] is 7; in assay [8] it was 173. Also, the inhibition constant (Ki) in assay [6] is 1.6 nM; in assay [7], greater than 10000 nM.
As to `CCOc1c(-c2csc3cnc(/C(C)=C/C(=O)O)cc23)cc(C(C)C)cc1C(C)C`, the Synergy in assay [2] is 2. Further, the Efficacy in [3] came to 15.1%; in assay [5], 9%. The Ratio in assay [4] was 347; in assay [8], 127. In addition, the concentration for a half-maximal effect (EC50) in [9] was 1440 nM.
With `CCOc1c(-c2n[nH]c3ccc(/C(C)=C/C(=O)O)cc23)cc(C(C)C)cc1C(C)C`, the Ki in assay [6] is 69.2 nM; in [7] it was greater than 10000 nM. This compound also displayed a concentration for a half-maximal effect (EC50) in assay [9] of 235 nM.
For `CCOc1c(-c2[nH]nc3ccc(/C(C)=C/C(=O)O)cc23)cc(C(C)C)cc1C(C)C`, the Synergy in assay [2] was 2.4. In addition, the figures for the Efficacy in [3] and in assay [5] were 43% and 7%, respectively. The Ratio worked out at 118 in assay [4] and 168 in assay [8].
